Target: T1, Recombinant human CETP (Homo sapiens, UniProt P11597)
T1 construct: made in house; host or cells: CHO cells (secreted into conditioned medium)
T1 sequence (P11597 18-493): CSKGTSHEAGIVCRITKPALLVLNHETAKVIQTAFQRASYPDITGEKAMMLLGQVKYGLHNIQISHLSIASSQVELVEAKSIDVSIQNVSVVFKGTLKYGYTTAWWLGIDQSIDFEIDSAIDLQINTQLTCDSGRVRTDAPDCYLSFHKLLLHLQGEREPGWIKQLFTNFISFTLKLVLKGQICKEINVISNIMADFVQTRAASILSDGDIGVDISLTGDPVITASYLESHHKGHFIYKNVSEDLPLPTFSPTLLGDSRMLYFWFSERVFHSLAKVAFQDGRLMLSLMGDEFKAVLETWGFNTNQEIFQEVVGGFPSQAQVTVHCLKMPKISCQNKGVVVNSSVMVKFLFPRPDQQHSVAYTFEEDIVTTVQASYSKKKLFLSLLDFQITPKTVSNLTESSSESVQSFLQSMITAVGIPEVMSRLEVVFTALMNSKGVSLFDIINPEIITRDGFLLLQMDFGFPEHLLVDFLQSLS
Assay: CETP in vitro assay (fluorometric assay, Roar Biomedical; cholesterol ester transfer from HDL to LDL)
Format: biochemical
Conditions: recombinant human CETP from CHO cells; 3 hours at 37° C.; fluorescence 485/535 nm; compound concentrations between 1 nM and 30 μM; read-out: IC50 values for inhibition of CETP
Method: CETP inhibitory activity of compounds of the present invention can be determined in a fluorometric assay purchased from Roar Biomedical, Inc. (New York, N.Y., USA). […] Recombinant human CETP was partially purified from medium conditioned by CETP expressing CHO cells. In a 384 well format 2.5 μl of compound solution in DMSO was combined with 2 μl of donor solution, 2 μl of acceptor solution and 0.8 μl of recombinant human CETP solution in a total volume of 100 μl with assay buffer and incubated for 3 hours at 37° C. The fluorescence intensity was measured at excitation wavelength of 485 nm and emission wavelength of 535 nm. IC50 values are calculated from dose effect curves from compound concentrations between 1 nM and 30 μM.

Structure (SMILES)	IC50 [nM]
CC(C)c1nc2c(c3c1[C@@H](c1ccc(C(F)(F)F)c(F)c1)OC31CCOCC1)[C@@H](O)CC(C)(C)C2 [1(53), (3R,9S)-3-(3-fluoro-4-(trifluoromethyl)phenyl)-4-isopropyl-7,7-dimethyl-2′,3′,5′,6,6′,7,8,9-octahydro-3H-spiro[furo[3,4-c]quinoline-1,4′-pyran]-9-ol]	23
CC(C)c1nc2c(c3c1[C@H](c1ccc(C(F)(F)F)c(F)c1)OC31CCOCC1)[C@@H](O)CC(C)(C)C2 [1(54), (3S,9S)-3-(3-fluoro-4-(trifluoromethyl)phenyl)-4-isopropyl-7,7-dimethyl-2′,3′,5′,6,6′,7,8,9-octahydro-3H-spiro[furo[3,4-c]quinoline-1,4′-pyran]-9-ol]	1690
CC(C)c1nc2c(c3c1[C@@H](c1ccc(C(F)(F)F)cc1F)OC31CCOCC1)[C@@H](O)CC(C)(C)C2 [1(55), (3S,9S)-3-(2-fluoro-4-(trifluoromethyl)phenyl)-4-isopropyl-7,7-dimethyl-2′,3′,5′,6,6′,7,8,9-octahydro-3H-spiro[furo[3,4-c]quinoline-1,4′-pyran]-9-ol]	26
Cc1nc([C@H]2OC3(CCOCC3)c3c2c(C(C)C)nc2c3[C@@H](O)CC(C)(C)C2)sc1C(C)(C)C [1(56), (3S,9S)-3-(5-tert-butyl-4-methylthiazol-2-yl)-4-isopropyl-7,7-dimethyl-2′,3′,5′,6,6′,7,8,9-octahydro-3H-spiro[furo[3,4-c]quinoline-1,4′-pyran]-9-ol]	470
CC(C)c1nc2c(c3c1[C@@H](c1ccc(C(F)(F)F)cc1)OC31CCOCC1)[C@@H](O)CC1(CCCC1)C2 [1(57), (3R,9S)-4-isopropyl-7,7-(butan-1,4-diyl)-3-(4-(trifluoromethyl)phenyl)-2′,3′,5′,6,6′,7,8,9-octahydro-3H-spiro[furo[3,4-c]quinoline-1,4′-pyran]-9-ol]	82
CC(C)c1nc2c(c3c1[C@@H](c1ccc(OC(C)(C)C)cc1)OC31CCOCC1)[C@@H](O)CC(C)(C)C2 [1(58), (3R,9S)-3-(4-tert-butoxyphenyl)-4-isopropyl-7,7-dimethyl-2′,3′,5′,6,6′,7,8,9-octahydro-3H-spiro[furo[3,4-c]quinoline-1,4′-pyran]-9-ol]	88
CC(C)Oc1ccc([C@H]2OC3(CCOCC3)c3c2c(C(C)C)nc2c3[C@@H](O)CC(C)(C)C2)cc1 [1(59), (3R,9S)-3-(4-isopropoxyphenyl)-4-isopropyl-7,7-dimethyl-2′,3′,5′,6,6′,7,8,9-octahydro-3H-spiro[furo[3,4-c]quinoline-1,4′-pyran]-9-ol]	245
C=C(C)c1ccc([C@H]2OC3(CCCC3)c3c2c(C(C)C)nc2c3[C@@H](O)CC(C)(C)C2)cc1 [1(60), (3′R,9′S)-4′-isopropyl-7′,7′-dimethyl-3′-(4-(prop-1-en-2-yl)phenyl)-6′,7′,8′,9′-tetrahydro-3′H-spiro[cyclopentane-1,1′-furo[3,4-c]quinolin]-9′-ol]	44
CC1(C)Cc2nc(C3CCOCC3)c3c(c2[C@@H](O)C1)C1(CCOCC1)O[C@@H]3c1ccc(S(F)(F)(F)(F)F)cc1 [1(61), (3R,9S)-7,7-dimethyl-4-(tetrahydro-2H-pyran-4-yl)-3-(4-(pentafluorosulfanyl)phenyl)-2′,3′,5′,6,6′,7,8,9-octahydro-3H-spiro[furo[3,4-c]quinoline-1,4′-pyran]-9-ol]	66
CC(C)c1nc2c(c3c1[C@@H](c1ccc(C(C)(C)C)cc1)OC31CCCC1)[C@@H](O)CC1(CCC1)C2 [1(62), (3′R,9′S)-3′-(4-tert-butylphenyl)-4′-isopropyl-7′,7′-(propan-1,3-diyl)-6′,7′,8′,9′-tetrahydro-3′H-spiro[cyclopentane-1,1′-furo[3,4-c]quinolin]-9′-ol]	21
CC(C)c1nc2c(c3c1[C@@H](c1ccc(C(C)(C)C)cc1)OC31CCOCC1)[C@@H](O)CC1(CCC1)C2 [1(63), (3R,9S)-3-(4-tert-butylphenyl)-4-isopropyl-7,7-(propan-1,3-diyl)-2′,3′,5′,6,6′,7,8,9-octahydro-3H-spiro[furo[3,4-c]quinoline-1,4′-pyran]-9-ol]	6

More lines, now with the values ahead:

IC50 [nM]	Structure (SMILES)
86	CC(C)c1nc2c(c3c1[C@@H](c1ccc(C4(C)COC4)cc1)OC31CCOCC1)[C@@H](O)CC(C)(C)C2 [1(64), (3R,9S)-4-isopropyl-7,7-dimethyl-3-(4-(3-methyloxetan-3-yl)phenyl)-2′,3′,5′,6,6′,7,8,9-octahydro-3H-spiro[furo[3,4-c]quinoline-1,4′-pyran]-9-ol]
83	CC(C)c1nc2c(c3c1[C@@H](c1ccc(C(F)(F)C(F)(F)F)cc1)OC31CCCC1)[C@@H](O)CC(C)(C)C2 [1(65), (3′R,9′S)-4′-isopropyl-7′,7′-dimethyl-3′-(4-(perfluoroethyl)phenyl)-6′,7′,8′,9′-tetrahydro-3′H-spiro[cyclopentane-1,1′-furo[3,4-c]quinolin]-9′-ol]
34	CC(C)c1nc2c(c3c1[C@@H](c1ccc(C(F)(F)F)c(C#N)c1)OC31CCOCC1)[C@@H](O)CC(C)(C)C2 [1(66), 5-((3R,9S)-9-hydroxy-4-isopropyl-7,7-dimethyl-2′,3′,5′,6,6′,7,8,9-octahydro-3H-spiro[furo[3,4-c]quinoline-1,4′-pyran]-3-yl)-2-(trifluoromethyl)benzonitrile]
161	CC(C)c1nc2c(c3c1[C@@H](c1ccc(C(F)(F)F)cn1)OC31CCOCC1)[C@@H](O)CC(C)(C)C2 [1(67), (3S,9S)-4-isopropyl-7,7-dimethyl-3-(5-(trifluoromethyl)pyridin-2-yl)-2′,3′,5′,6,6′,7,8,9-octahydro-3H-spiro[furo[3,4-c]quinoline-1,4′-pyran]-9-ol]
24	CC(C)c1nc2c(c3c1[C@@H](c1ccc(S(F)(F)(F)(F)F)cc1)OC31CCOCC1)[C@@H](O)CC(C)(C)C2 [1(68), (3R,9S)-4-isopropyl-7,7-dimethyl-3-(4-(pentafluorosulfanyl)phenyl)-2′,3′,5′,6,6′,7,8,9-octahydro-3H-spiro[furo[3,4-c]quinoline-1,4′-pyran]-9-ol]
14	CC(C)c1nc2c(c3c1[C@@H](c1ccc(S(F)(F)(F)(F)F)cc1)OC31CCOCC1)[C@@H](O)CC1(CCC1)C2 [1(69), (3R,9S)-4-isopropyl-7,7-(propan-1,3-diyl)-3-(4-(pentafluorosulfanyl)phenyl)-2′,3′,5′,6,6′,7,8,9-octahydro-3H-spiro[furo[3,4-c]quinoline-1,4′-pyran]-9-ol]
57	CC1(C)Cc2nc(C3CCOCC3)c3c(c2[C@@H](O)C1)C1(CCOCC1)O[C@@H]3c1ccc(C(C)(C)C)cc1 [1(70), (3R,9S)-3-(4-tert-butylphenyl)-7,7-dimethyl-4-(tetrahydro-2H-pyran-4-yl)-2′,3′,5′,6,6′,7,8,9-octahydro-3H-spiro[furo[3,4-c]quinoline-1,4′-pyran]-9-ol]
31	CC(C)c1nc2c(c3c1[C@@H](c1ccc(S(F)(F)(F)(F)F)cc1)OC31CCCC1)[C@@H](O)CC(C)(C)C2 [1(71), (3′R,9′S)-4′-isopropyl-7′,7′-dimethyl-3′-(4-(pentafluorosulfanyl)phenyl)-6′,7′,8′,9′-tetrahydro-3′H-spiro[cyclopentane-1,1′-furo[3,4-c]quinolin]-9′-ol]
39	N#Cc1cc([C@H]2OC3(CCOCC3)c3c2c(C2CCOCC2)nc2c3[C@@H](O)CC3(CCC3)C2)ccc1C(F)(F)F [1(72), 5-((3R,9S)-9-hydroxy-7,7-(propan-1,3-diyl)-4-(tetrahydro-2H-pyran-4-yl)-2′,3′,5′,6,6′,7,8,9-octahydro-3H-spiro[furo[3,4-c]quinoline-1,4′-pyran]-3-yl)-2-(trifluoromethyl)benzonitrile]
1700	CC1(C)Cc2nc(C3CCOCC3)c3c(c2[C@@H](O)C1)C1(CCOCC1)O[C@@H]3c1ccc(C(F)(F)F)cn1 [1(73), (3S,9S)-7,7-dimethyl-4-(tetrahydro-2H-pyran-4-yl)-3-(5-(trifluoromethyl)pyridin-2-yl)-2′,3′,5′,6,6′,7,8,9-octahydro-3H-spiro[furo[3,4-c]quinoline-1,4′-pyran]-9-ol]
100	CC1(C)Cc2nc(C3CCOCC3)c3c(c2[C@@H](O)C1)C1(CCOCC1)O[C@@H]3c1ccc(C(F)(F)F)c(C#N)c1 [1(74), 5-((3R,9S)-9-hydroxy-7,7-dimethyl-4-(tetrahydro-2H-pyran-4-yl)-2′,3′,5′,6,6′,7,8,9-octahydro-3H-spiro[furo[3,4-c]quinoline-1,4′-pyran]-3-yl)-2-(trifluoromethyl)benzonitrile]
288	O[C@H]1CC2(CCC2)Cc2nc(C3CCOCC3)c3c(c21)C1(CCOCC1)O[C@@H]3c1ccc(C(F)(F)F)cn1 [1(75), (3S,9S)-7,7-(propan-1,3-diyl)-4-(tetrahydro-2H-pyran-4-yl)-3-(5-(trifluoromethyl)pyridin-2-yl)-2′,3′,5′,6,6′,7,8,9-octahydro-3H-spiro[furo[3,4-c]quinoline-1,4′-pyran]-9-ol]

Reference: patent US9029544B2, “Tricyclic pyridine derivatives, medicaments containing such compounds, their use and process for their preparation” (Boehringer Ingelheim International GmbH, priority 2010, dated 2015)
